# Measurements taken from patent publication US20170105949A1, “METHOD FOR IMPROVING FEED EFFICIENCY IN RUMINANTS” (Rivalea (Australia) Pty Ltd, priority 2014, published 2017).
# Structures can show the parent of a compound that is named as a salt.
# Columns and labels:
# [1] = Growth performance and feed efficiency of lambs fed pelleted test diets ad libitum (live weight, feed intake by disappearance); type: in vivo, lambs (Border Leister x Merino)
# Description: Lambs were used in this study as the model animal representing ruminants. Previous research has shown similar growth performance, feed efficiency and carcass benefits from the inclusion of Ractopamine in cattle and lamb diets. Given this, it is expected that the outcomes from feeding RAC and caffeine in combination to finishing lambs can be translated to expected results in other ruminants such as cattle. The surprising results found in lambs show promise for use of RAC and caffeine in other ruminants, particularly cattle where RAC is an approved animal feed additive.
# (§1) A total of 36 male lambs (Border Leister x Merino) were selected at approximately 14 weeks of age and housed in pens of two lambs per pen in a naturally ventilated shed. Lambs were fed a commercial lamb finisher diet for a 14 day acclimatisation period prior to the start of the test period. In addition, all lambs were offered 250 g lucerne hay per day as roughage. At the start of the test period, lambs were individually weighed (average weight 29.8 kg±0.29 kg), ear tagged and the pen randomly allocated to one of three dietary treatments:
# (§2) A: Control (no RAC or Caffeine for the entire 56 day test period)
# (§3) B: RAC (20 ppm (20 g/t) RAC for the entire 56 day test period)
# (§4) C: RAC +Caffeine (20 ppm (20 g/t)) RAC offered from day 0 to day 21, followed by 20 ppm (20 g/t) RAC plus 0.5 kg/t caffeine offered from day 21 to day 56).
# (§5) Diets were pelleted and fed ad libitum for the entire test period, while water was also freely available at all times. In addition to the pelleted test feeds, each lamb was offered 200 g lucerne hay per day (floor fed) as an additional source of roughage.
# Lambs were shorn prior to entry to the facility to minimise the impact of wool growth on rate of gain measurements and body composition analysis. Individual weights were recorded periodically throughout the test period (Days 0, 21, 35 and 56), while intake of the pelleted test diets was measured by feed disappearance and feed efficiency subsequently calculated.
# No attempt was made to measure feed residues of the lucerne hay as the lambs consumed this rapidly and the volume of wastage was considered insignificant.
# (§6) Data were subjected to an analysis of variance (ANOVA) for the main effect of dietary treatment. Data for treatments B and C were pooled for the initial 21 day feeding period as both treatment groups were fed the same diet during this time period. The experimental unit for all analyses was the pen of ruminant. All analyses were performed using Genstat 16th Edition (Payne RW, Harding SA, Genstat Committee 2005 Genstat release 8 reference manual, USN International: Oxford UK).
# [2] = Body composition of lambs by dual energy x-ray absorptiometry (DXA) scanning; type: in vivo, lambs (Border Leister x Merino)
# Description: as §1, §2, §3, §4, §5
# Dual energy x-ray absorptiometry (DXA) scanning was undertaken using a Hologic X-Ray Bone Densitometer (Hologic Inc, Waltham, Mass., USA) at day 21 and day 56 of the test period. All lambs were weighed on the day of scanning (prior to anaesthesia). Lambs were sedated using xylazine (administered intramuscularly) and anaesthetised with ketamine intra venously under veterinary direction. Once anaesthetised, lambs were positioned in a ventral recumbency with their hind legs extended and forelegs positioned caudally to accommodate the DXA regional analysis software. The whole body scan mode was used for each animal, with the length of the scan adjusted for the length of the lamb. Following DXA analysis, lambs were monitored by a veterinarian for full recovery from anaesthesia. As the DXA software generates body composition estimates for humans, the raw DXA output from each scan was adjusted for lambs using equations developed by comparisons with actual empty body chemical composition (Hunter 2000).
# as §6
# [3] = RAC 20 ppm throughout, RAC + Caffeine: 0.5 kg/t caffeine added from day 21, day 0 weight as covariate
# [4] = RAC 20 ppm, RAC + Caffeine: 20 ppm RAC plus 0.5 kg/t caffeine from day 21
# [5] = day 0 to day 21, 20 ppm RAC in diet, treatments B and C pooled
# [6] = entire test period, RAC 20 ppm, RAC + Caffeine: caffeine 0.5 kg/t added day 21-56
# [7] = DXA, RAC 20 ppm day 0-56, RAC + Caffeine: caffeine 0.5 kg/t added day 21-56, live weight day 56 as covariate
# [8] = DXA, RAC treatment groups pooled, 20 ppm RAC day 0-21
# [9] = DXA, both groups 20 ppm RAC day 0-21, live weight day 21 as covariate
smiles,measurement,setting,value
"CC(CCc1ccc(O)cc1)NCC(O)c1ccc(O)cc1 (racemic) [RAC, Ractopamine hydrochloride]",Live weight day 21,"[1]; 20 ppm RAC in diet day 0-21, treatments B and C pooled, day 0 weight as covariate",37.9 kg
same,Live weight Day 35,[1]; [3],43.6 kg
same,Live weight Day 56,[1]; [3],47.3 kg
same,ADFI Day 21-35,[1]; [4],1.77 kg/day
same,ADFI Day 21-56,[1]; [4],1.82 kg/day
same,ADFI Day 35-56,[1]; [4],1.77 kg/day
same,ADG Day 21-35,[1]; [4],0.380 kg/day
same,ADG Day 21-56,[1]; [4],0.266 kg/day
same,ADG Day 35-56,[1]; [4],0.177 kg/day
same,FCE Day 21-35,[1]; [4],0.214 gain/feed
same,FCE Day 21-56,[1]; [4],0.144 gain/feed
same,FCE Day 35-56,[1]; [4],0.113 gain/feed
same,ADFI,[1]; [5],1.40 kg/day
same,ADG,[1]; [5],0.388 kg/day
same,FCE (gain/feed),[1]; [5],0.28 gain/feed
same,ADFI Day 0-56,[1]; [6],1.67 kg/day
same,ADG Day 0-56,[1]; [6],0.317 kg/day
same,FCE Day 0-56,[1]; [6],0.189 gain/feed
same,Live weight Day 21,"[1]; three treatments, both groups 20 ppm RAC day 0-21, day 0 weight as covariate",38.2 kg
same,Adipose tissue (%) Day 56,[2]; [7],22.90%
same,Bone mineral content (%) Day 56,[2]; [7],3.01%
same,Lean tissue (%) Day 56,[2]; [7],72.64%
same,"adipose tissue at day 21, pooled data",[2]; [8],19.24%
same,"percentage of lean tissue at day 21, pooled data",[2]; [8],76.83%
same,Adipose tissue (%) Day 21,[2]; [9],19.18%
same,Bone mineral content (%) Day 21,[2]; [9],2.95%
same,Lean tissue (%) Day 21,[2]; [9],76.84%
same,Feed efficiency for lean tissue deposition (kg lean tissue gain: kg feed intake) Day 21-56,[2]; [4],0.073 kg lean tissue gain: kg feed intake
